What was measured:
[1] = tested on: cultured human adipocytes; experiment: In vitro lipolysis assay (glycerol release) in cultured adipocytes; format: cell-based; settings: for increase in lipolysis relative to negative control: glycerol in Assay Buffer
Procedure: In the in vitro lipolysis assay, glycerol was detected in cell culture media via a spectrophotometric measurement after chemical oxidation with hydrogen peroxide. Glycerol was measured over a three hour time period. Levels of lipolysis in cultured human adipocytes were tested after exposure to a beta agonist alone, a glucocorticosteroid alone, or the combination of the two for one or more preincubation periods as described in more detail below.
Human subcutaneous adipocytes were used in the lipolysis assay. Adipose tissue was harvested from liposuction or lipectomy and pre-adipocytes were isolated as follows. Briefly, fat tissue was minced and incubated at 37° C. in Krebs-Ringer bicarbonate buffer containing 1% bovine serum albumin and 0.1% collagenase in an oxygen-rich shaking chamber (5% CO2; 75 strokes/min) for 1 hour. The suspension was filtered through a 400 tim nylon mesh and centrifuged for 1 mm at 100 g. The pre-adipocytes in the […] were washed twice with and then plated in 96 well plates at a density of cells/well. The pre-adipocytes were cultured in maintenance medium for seven days as they differentiated into adipocytes.
At −21 hours before the lipolysis assay, medium was removed from each well and replaced with 75 μl of Maintenance Medium containing appropriate drug or DMSO (vehicle) concentrations (see Experimental Design section below). Each test drug or control treatment was applied to 8 wells/group (12 treatment groups per 96-well plate). At −3 hours prior to the lipolysis assay, each well was washed two times with Wash Buffer (200 μl/wash), filled with test or control solutions made up in Assay Buffer (75 μl/well), and then incubated for three hours, i.e., until measurement of glycerol content in the Assay Buffer. For some groups, a drug was only added for the three hour incubation period (see Experimental and Control Groups Below).
The glycerol content of the Assay Buffer from each well following the incubation was used as an index for lipolysis, where an increase in glycerol indicated lipolysis. Glycerol levels were assayed colorimetrically via a commercial glycerol assay kit (Randox Laboratory, United Kingdom) and quantified by comparison to a glycerol serial dilution standard curve (3 μM-200 μM). Glycerol concentrations for each well were normalized to cell density.
In each of the following control or experimental groups n=8 corresponding to the glycerol measurements for 8 wells from a 96-well cell culture plate.

[2] = compared with albuterol 5, a short acting hydrophilic beta agonist; cited from earlier work
[3] = 18 hour incubation, Salmeterol 10^−6 M or 10^−8 M, Budesonide 10^−6 M, Isoproterenol 10^−6 M
[4] = three hour incubation, isoproterenol 10^−6 M

budesonide
effect on lipolysis in cultured adipocytes [1, 3]: slight suppression of lipolysis | effect on lipolysis in cultured adipocytes ([1]; three hour incubation): dose-dependent induction of lipolysis | increase in lipolysis relative to negative control [1, 4]: up to 1.5 fold | lipolysis compared with isoproterenol (positive control) [1, 4]: lower than that observed for Isoproterenol

OCc1cc(C(O)CNCCCCCCOCCCCc2ccccc2)ccc1O (racemic) [Salmeterol, ±2-(hydroxymethyl)-4-[1-hydroxy-2-[6-(4-phenylbutoxy)hexylamino]ethyl]-phenol]
lipophilicity relative to albuterol [2]: at least 10,000 times

CC(C)NCC(O)c1ccc(O)c(O)c1 (stereo not shown) [Isoproterenol, isoproterenol]
effect on lipolysis in cultured adipocytes [1, 3]: decreased lipolysis | increase in lipolysis relative to negative control [1, 4]: about 2.5 fold
